Measurements from PubChem BioAssay (NCI).
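Five compound concentrations were applied to cells in 96-well plates for 48 hours; endpoints were derived by simple linear interpolation of the resulting dose-response curve. The concentration for full growth arrest is given as TGI.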

How the values were obtained:
Test in all cases: NCI-60 cell line screen, 48 h
HL-60(TB) leukemia = tested on: HL-60(TB) leukemia
CAKI-1 renal = tested on: CAKI-1 renal
SNB-19 CNS = tested on: SNB-19 CNS
PC-3 prostate = tested on: PC-3 prostate
SF-295 CNS = tested on: SF-295 CNS
HS 578T breast = tested on: HS 578T breast
MCF7 breast = tested on: MCF7 breast
LOX IMVI melanoma = tested on: LOX IMVI melanoma
SK-OV-3 ovarian = tested on: SK-OV-3 ovarian
HCC-2998 colon = tested on: HCC-2998 colon
NCI-H23 lung = tested on: NCI-H23 lung
SK-MEL-28 melanoma = tested on: SK-MEL-28 melanoma
BT-549 breast = tested on: BT-549 breast
RPMI-8226 leukemia = tested on: RPMI-8226 leukemia
HOP-62 NSCLC = tested on: HOP-62 NSCLC
NCI-H460 lung = tested on: NCI-H460 lung
NCI-H226 lung = tested on: NCI-H226 lung
UO-31 renal = tested on: UO-31 renal
TK-10 renal = tested on: TK-10 renal
A498 renal = tested on: A498 renal
IGROV1 ovarian = tested on: IGROV1 ovarian
SF-539 CNS = tested on: SF-539 CNS
U251 CNS = tested on: U251 CNS
M14 melanoma = tested on: M14 melanoma
OVCAR-5 ovarian = tested on: OVCAR-5 ovarian
SF-268 CNS = tested on: SF-268 CNS
MDA-MB-435 = tested on: MDA-MB-435
K-562 leukemia = tested on: K-562 leukemia
UACC-62 melanoma = tested on: UACC-62 melanoma
CCRF-CEM leukemia = tested on: CCRF-CEM leukemia
MALME-3M melanoma = tested on: MALME-3M melanoma
SK-MEL-5 melanoma = tested on: SK-MEL-5 melanoma
UACC-257 melanoma = tested on: UACC-257 melanoma
COLO 205 colon = tested on: COLO 205 colon
HCT-116 colon = tested on: HCT-116 colon
SN12C renal = tested on: SN12C renal
A549 NSCLC = tested on: A549 NSCLC
HCT-15 colon = tested on: HCT-15 colon
HOP-92 NSCLC = tested on: HOP-92 NSCLC
MDA-MB-231 breast = tested on: MDA-MB-231 breast
SR leukemia = tested on: SR leukemia
786-0 renal = tested on: 786-0 renal
NCI/ADR-RES ovarian = tested on: NCI/ADR-RES ovarian
NCI-H522 lung = tested on: NCI-H522 lung
ACHN renal = tested on: ACHN renal
SW-620 colon = tested on: SW-620 colon
OVCAR-4 ovarian = tested on: OVCAR-4 ovarian
OVCAR-3 ovarian = tested on: OVCAR-3 ovarian
KM12 colon = tested on: KM12 colon
HT29 colon = tested on: HT29 colon
OVCAR-8 ovarian = tested on: OVCAR-8 ovarian
T-47D breast = tested on: T-47D breast
MDA-N = tested on: MDA-N
MOLT-4 leukemia = tested on: MOLT-4 leukemia
EKVX NSCLC = tested on: EKVX NSCLC
SK-MEL-2 melanoma = tested on: SK-MEL-2 melanoma
DU-145 prostate = tested on: DU-145 prostate
RXF 393 renal = tested on: RXF 393 renal
SNB-75 CNS = tested on: SNB-75 CNS

CC(C)=CCC/C(C)=C/COc1c2ccoc2cc2oc(=O)ccc12
TGI (HL-60(TB) leukemia): 50.5 µM | TGI (CAKI-1 renal): > 100 µM | TGI (SNB-19 CNS): > 100 µM | TGI (PC-3 prostate): > 100 µM | TGI (SF-295 CNS): 75.3 µM | TGI (HS 578T breast): > 100 µM | TGI (MCF7 breast): 61.4 µM | TGI (LOX IMVI melanoma): 46.4 µM | TGI (SK-OV-3 ovarian): 82.6 µM | TGI (HCC-2998 colon): 79.7 µM | TGI (NCI-H23 lung): > 100 µM | TGI (SK-MEL-28 melanoma): > 100 µM | TGI (BT-549 breast): > 100 µM | TGI (RPMI-8226 leukemia): 42.1 µM | TGI (HOP-62 NSCLC): > 100 µM | TGI (NCI-H460 lung): > 100 µM | TGI (NCI-H226 lung): 87.6 µM | TGI (UO-31 renal): 59.7 µM | TGI (TK-10 renal): > 100 µM | TGI (A498 renal): 68.2 µM | TGI (IGROV1 ovarian): > 100 µM | TGI (SF-539 CNS): > 100 µM | TGI (U251 CNS): 55.5 µM | TGI (M14 melanoma): 89.1 µM | TGI (OVCAR-5 ovarian): 75.8 µM | TGI (SF-268 CNS): > 100 µM | TGI (MDA-MB-435): > 100 µM | TGI (K-562 leukemia): > 100 µM | TGI (UACC-62 melanoma): 38.3 µM | TGI (CCRF-CEM leukemia): 50.2 µM | TGI (MALME-3M melanoma): 99.6 µM | TGI (SK-MEL-5 melanoma): 28.6 µM | TGI (UACC-257 melanoma): 90.4 µM | TGI (COLO 205 colon): 32.4 µM | TGI (HCT-116 colon): 85.4 µM | TGI (SN12C renal): > 100 µM | TGI (A549 NSCLC): > 100 µM | TGI (HCT-15 colon): > 100 µM | TGI (HOP-92 NSCLC): > 100 µM | TGI (MDA-MB-231 breast): 86.5 µM | TGI (SR leukemia): 43.1 µM | TGI (786-0 renal): > 100 µM | TGI (NCI/ADR-RES ovarian): > 100 µM | TGI (NCI-H522 lung): 74.8 µM | TGI (ACHN renal): 83.8 µM | TGI (SW-620 colon): > 100 µM | TGI (OVCAR-4 ovarian): > 100 µM | TGI (OVCAR-3 ovarian): 57.6 µM | TGI (KM12 colon): > 100 µM | TGI (HT29 colon): 81.1 µM | TGI (OVCAR-8 ovarian): > 100 µM | TGI (T-47D breast): > 100 µM | TGI (MDA-N): > 100 µM | TGI (MOLT-4 leukemia): 42.3 µM | TGI (EKVX NSCLC): 72 µM | TGI (SK-MEL-2 melanoma): 38.3 µM

OCCN(/N=C\c1ccc2ccccc2c1)C1=NCCN1
TGI (HL-60(TB) leukemia): 43.6 µM | TGI (SNB-19 CNS): > 100 µM | TGI (PC-3 prostate): > 100 µM | TGI (SF-295 CNS): > 100 µM | TGI (HS 578T breast): > 100 µM | TGI (MCF7 breast): > 100 µM | TGI (LOX IMVI melanoma): 30.6 µM | TGI (SK-OV-3 ovarian): > 100 µM | TGI (HCC-2998 colon): 32.6 µM | TGI (NCI-H23 lung): > 100 µM | TGI (SK-MEL-28 melanoma): 35.3 µM | TGI (BT-549 breast): > 100 µM | TGI (RPMI-8226 leukemia): 60.8 µM | TGI (HOP-62 NSCLC): > 100 µM | TGI (NCI-H460 lung): > 100 µM | TGI (NCI-H226 lung): 36.1 µM | TGI (UO-31 renal): > 100 µM | TGI (TK-10 renal): > 100 µM | TGI (IGROV1 ovarian): > 100 µM | TGI (SF-539 CNS): 43.6 µM | TGI (U251 CNS): 73.8 µM | TGI (M14 melanoma): 35 µM | TGI (OVCAR-5 ovarian): 72.2 µM | TGI (SF-268 CNS): > 100 µM | TGI (MDA-MB-435): 32.7 µM | TGI (K-562 leukemia): 30.4 µM | TGI (UACC-62 melanoma): 48.6 µM | TGI (CCRF-CEM leukemia): 71.4 µM | TGI (DU-145 prostate): > 100 µM | TGI (MALME-3M melanoma): 29.6 µM | TGI (SK-MEL-5 melanoma): 33.1 µM | TGI (COLO 205 colon): 34.8 µM | TGI (HCT-116 colon): 79.9 µM | TGI (SN12C renal): > 100 µM | TGI (RXF 393 renal): 36.1 µM | TGI (A549 NSCLC): > 100 µM | TGI (HCT-15 colon): > 100 µM | TGI (HOP-92 NSCLC): 53.1 µM | TGI (MDA-MB-231 breast): 33.4 µM | TGI (SR leukemia): 55.9 µM | TGI (786-0 renal): 64.4 µM | TGI (ACHN renal): > 100 µM | TGI (SW-620 colon): 55.6 µM | TGI (OVCAR-4 ovarian): > 100 µM | TGI (OVCAR-3 ovarian): > 100 µM | TGI (KM12 colon): > 100 µM | TGI (HT29 colon): 89 µM | TGI (OVCAR-8 ovarian): > 100 µM | TGI (T-47D breast): > 100 µM | TGI (MDA-N): 32.4 µM | TGI (MOLT-4 leukemia): 44.5 µM | TGI (EKVX NSCLC): > 100 µM | TGI (SK-MEL-2 melanoma): 42.6 µM | TGI (SNB-75 CNS): > 100 µM
